Assay results: patent US10919937B2, “Bicyclic peptide ligands and uses thereof” (BicycleTx Limited, priority 2018, dated 2021)
Read-outs that look alike come from different tables or passages of the source. Blank lines part the entries; values can stand above or below the compound they belong to. *1 amine or outer side, *2 acyl side, *3 side chain or, on linkers, in order; H or OH if unused. Where a SMILES comes first, the peptide text is derived from it. Bridges are numbered along the chain shown (N, C = ends). [ ]: non-standard residue; d: D form. X11 = O=C(C[*:1])N1CCN(c2ccc(-c3nc(-c4ccc(N5CCN(C(=O)C[*:2])CC5)cc4)nc(-c4ccc(N5CCN(C(=O)C[*:3])CC5)cc4)n3)cc2)CC1; X7 = O=C(c1ccc(C[*:1])cc1)N1CN(C(=O)c2ccc(C[*:2])cc2)CN(C(=O)c2ccc(C[*:3])cc2)C1; X1 = c1cc(-c2nc(-c3ccc(C[*:2])cc3)nc(-c3ccc(C[*:3])cc3)n2)ccc1C[*:1]; TBMB = c1c(C[*:1])cc(C[*:3])cc1C[*:2]

Legend:
CAIX [1] = molecular target: T1, CAIX (Homo sapiens, UniProt Q16790); conditions: bicyclic peptide formed with TBMB scaffold; CAIX binder; cited from earlier work
CAIX [2] = molecular target: T1, CAIX; assay: CAIX Competition Binding Assay (competition fluorescence polarization)
Description: CAIX Competition Binding Assay. Affinity of the peptides of the invention for human CAIX (Ki) is determined using a competition fluorescence polarization assay analogous to that described in Dubois et al. (2011) Radiotherapy and Oncology 99(3), 424-43 using A-(CAECWIDGWVPC)-A-Sar6-K(Fl), (SEQ ID NO: 11), as the fluorescent ligand.
Compounds described as “B” have a K, equal to or greater than 0.5 μM and less than 1 μM. Compounds described as “C” have a K, equal to or greater than 1 μM and less than 10 μM. Compounds described as “D” have a K, equal to or greater than 10 μM.

MT1-MMP = MT1-MMP (Homo sapiens, UniProt P50281); conditions: bicyclic peptide formed with TBMB scaffold; MT1-MMP binder; cited from earlier work
EphA2 = molecular target: T2, EphA2 (Homo sapiens, UniProt P29317); assay: EphA2 SPR Assay; format: binding; conditions: n = 2
T2 construct: purchased
T2 sequence (P29317 24-976, species assumed): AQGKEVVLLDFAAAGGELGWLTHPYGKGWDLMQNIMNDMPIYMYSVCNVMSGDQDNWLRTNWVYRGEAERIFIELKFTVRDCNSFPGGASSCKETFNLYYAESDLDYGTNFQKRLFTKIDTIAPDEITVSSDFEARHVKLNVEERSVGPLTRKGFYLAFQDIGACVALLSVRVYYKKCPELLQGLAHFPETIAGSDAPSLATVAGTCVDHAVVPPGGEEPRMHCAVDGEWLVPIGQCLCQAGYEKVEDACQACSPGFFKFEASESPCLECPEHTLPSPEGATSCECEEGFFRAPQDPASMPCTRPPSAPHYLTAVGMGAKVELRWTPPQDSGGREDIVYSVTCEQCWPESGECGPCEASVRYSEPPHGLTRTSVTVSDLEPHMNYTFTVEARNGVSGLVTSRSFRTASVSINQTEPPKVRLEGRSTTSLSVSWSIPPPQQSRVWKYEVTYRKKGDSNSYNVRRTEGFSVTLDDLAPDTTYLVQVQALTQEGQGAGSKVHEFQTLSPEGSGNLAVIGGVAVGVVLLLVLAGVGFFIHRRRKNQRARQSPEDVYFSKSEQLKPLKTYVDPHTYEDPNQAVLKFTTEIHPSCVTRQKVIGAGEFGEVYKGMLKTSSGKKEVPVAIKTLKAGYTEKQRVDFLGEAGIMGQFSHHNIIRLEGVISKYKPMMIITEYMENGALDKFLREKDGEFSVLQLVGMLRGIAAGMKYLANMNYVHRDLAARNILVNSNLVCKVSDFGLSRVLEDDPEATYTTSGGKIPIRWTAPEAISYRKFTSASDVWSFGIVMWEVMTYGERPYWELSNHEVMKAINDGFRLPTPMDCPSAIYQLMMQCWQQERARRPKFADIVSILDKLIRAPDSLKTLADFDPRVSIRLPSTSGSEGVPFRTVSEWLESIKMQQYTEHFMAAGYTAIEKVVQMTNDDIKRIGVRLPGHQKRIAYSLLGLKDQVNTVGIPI
Description: SPR Measurements: Non-Fc fusion proteins were biotinylated with EZ-Link™ Sulfo-NHS-LC-Biotin for 1 hour in 4 mM sodium acetate, 100 mM NaCl, pH 5.4 with a 3× molar excess of biotin over protein. The degree of labelling was determined using a Fluorescence Biotin QuantificationKit (Thermo) after dialysis of the reaction mixture into PBS. For analysis of peptide binding, a Biacore T200 10 instrument was used utilising a XanTec CMD500D chip. Streptavidin was immobilized on the chip using standard amine-coupling chemistry at 25° C. with HBS—N (10 mM HEPES, 0.15 M NaCl, pH 7.4) as the running buffer. Briefly, the carboxymethyl dextran surface was activated with a 7 min injection of a 1:1 ratio of 0.4 M 1-ethyl-3-(3-dimethylaminopropyl) carbodiimide hydrochloride (EDC)/0.1 M N-hydroxy succinimide (NHS) at a flow rate of 10 μl/min. For capture of streptavidin, the protein was diluted to 0.2 mg/ml in 10 mM sodium acetate (pH 4.5) and captured by injecting 120 μl onto the activated chip surface. Residual activated groups were blocked with a 7 min injection of 1 M ethanolamine (pH 8.5):HBS—N (1:1). Buffer was changed to PBS/0.05% Tween 20 and biotinylated EphA2 was captured to a level of 500-1500 RU using a dilution of protein to 0.2 μM in buffer. […]

[3] = human CAIX, competition FP, n = 2, read-out: Ki

Compound: βAla-Sar10-A-CTECWVDGWVPC (AXACTECWVDGWVPC; βAla-Sar10 N-terminal; TBMB scaffold; MOD_RES (1)..(1) Beta-Ala; MOD_RES (2)..(2) Sar10) [compound 2]
Kd (CAIX [1]): 10 nM

Compound: CC(=O)N[C@H]1CSCc2cc3cc(c2)CSC[C@@H](C(N)=O)NC(=O)[C@@H]2CCCN2C(=O)[C@H](C(C)C)NC(=O)[C@H](Cc2c[nH]c4ccccc24)NC(=O)CNC(=O)[C@H](CC(=O)O)NC(=O)[C@H](C(C)C)NC(=O)[C@H](Cc2c[nH]c4ccccc24)NC(=O)[C@H](Cc2ccc(cc2)OC3)NC(=O)[C@H](CCC(=O)O)NC(=O)[C@H]([C@@H](C)O)NC1=O [I-108] (Ac-CTEYWVDGWVPC-NH2; linker 1-4-12 via TBMB)
Ki (CAIX [2]): < 500 nM

Compound: βAla-Sar10-A-C(D-Ala)NE(1Nal)(D-Ala)CEDFYD(tBuGLy)C (AXACANEXACEDFYDGC; βAla-Sar10 N-terminal; non-natural residues; molecular scaffold; MOD_RES (1)..(1) Beta-Ala; MOD_RES (2)..(2) Sar10; MOD_RES (5)..(5) D-Ala; MOD_RES (8)..(8) 1Nal; MOD_RES (9)..(9) D-Ala; MOD_RES (16)..(16) tBu-Gly) [17-69-07-N241, treated with molecular scaffold reagents]
Kd (MT1-MMP): 1.2 nM

Kd (EphA2): > 10000 nM
Compound: CC(C)[C@H](NC(=O)[C@H](CC(=O)O)NC(=O)[C@H](C)N)C(=O)N[C@@H](Cc1cnc[nH]1)C(=O)N[C@H]1CSCc2ccc(cc2)C(=O)N2CN3CN(C2)C(=O)c2ccc(cc2)CSC[C@H](NC(=O)[C@H](Cc2c[nH]c4ccccc24)NC(=O)[C@H](Cc2ccccc2)NC(=O)[C@H]2CCCN2C(=O)CNC(=O)[C@H](Cc2c[nH]c4ccccc24)NC(=O)[C@@H]2CCCN2C1=O)C(=O)N1CCC[C@H]1C(=O)N[C@@H](C(C)C)C(=O)N[C@H](CC(N)=O)C(=O)N[C@H](CCCNC(=N)N)C(=O)N1CCC[C@@H]1C(=O)NCC(=O)N[C@H](C(=O)N[C@@H](C)C(=O)O)CSCc1ccc(cc1)C3=O [I-103] (H-ADVHCPWG[dP]FWCPV[dN][dR][dP]GCA-OH; linker 5-12-19 via X7)

Ki (CAIX [2]; [3]): > 10000 nM
Compound: CC(C)[C@@H]1NC(=O)[C@H](Cc2c[nH]c3ccccc23)NC(=O)[C@@H]2CSCC(=O)N3Cc4cccc(c4)CN(Cc4cccc(c4)CN(Cc4cccc(c4)C3)C(=O)CSC[C@H](NC(=O)[C@H](C)NC(=O)CN(C)C(=O)CN(C)C(=O)CN(C)C(=O)CN(C)C(=O)CN(C)C(=O)CN(C)C(=O)CN(C)C(=O)CN(C)C(=O)CN(C)C(=O)CN(C)C(=O)CCN)C(=O)N[C@@H]([C@@H](C)O)C(=O)N[C@@H](CCC(=O)O)C(=O)N2)C(=O)CSC[C@@H](C(N)=O)NC(=O)[C@@H]2CCCN2C(=O)[C@H](C(C)C)NC(=O)[C@H](Cc2c[nH]c3ccccc23)NC(=O)CNC(=O)[C@H](CC(=O)O)NC1=O [I-23]

Kd (EphA2): < 500 nM
Compound: CC(C)[C@H](NC(=O)[C@H](CC(=O)O)NC(=O)[C@H](C)N)C(=O)N[C@@H](Cc1cnc[nH]1)C(=O)N[C@H]1CSCC(=O)N2CCN(CC2)c2ccc(cc2)-c2nc3nc(n2)-c2ccc(cc2)N2CCN(CC2)C(=O)CSC[C@H](NC(=O)[C@H](Cc2c[nH]c4ccccc24)NC(=O)[C@H](Cc2ccccc2)NC(=O)[C@H]2CCCN2C(=O)CNC(=O)[C@H](Cc2c[nH]c4ccccc24)NC(=O)[C@@H]2CCCN2C1=O)C(=O)N1CCC[C@H]1C(=O)N[C@@H](C(C)C)C(=O)N[C@H](CC(N)=O)C(=O)N[C@H](CCCNC(=N)N)C(=O)N1CCC[C@@H]1C(=O)NCC(=O)N[C@H](C(=O)N[C@@H](C)C(=O)O)CSCC(=O)N1CCN(CC1)c1ccc-3cc1 [I-104] (H-ADVHCPWG[dP]FWCPV[dN][dR][dP]GCA-OH; linker 5-12-19 via X11)

Compound: CC(=O)N[C@H]1CSCc2ccc(cc2)-c2nc3nc(n2)-c2ccc(cc2)CSC[C@H](NC(=O)[C@H](CCC(=O)O)NC(=O)[C@H]([C@@H](C)O)NC1=O)C(=O)N[C@@H](Cc1c[nH]c2ccccc12)C(=O)N[C@@H](C(C)C)C(=O)N[C@@H](CC(=O)O)C(=O)NCC(=O)N[C@@H](Cc1c[nH]c2ccccc12)C(=O)N[C@@H](C(C)C)C(=O)N1CCC[C@H]1C(=O)N[C@H](C(N)=O)CSCc1ccc-3cc1 [I-98] (Ac-CTECWVDGWVPC-NH2; linker 1-4-12 via X1)
Ki (CAIX [2]; [3]): < 500 nM

Ki (CAIX [2]; [3]): 500 to 1000 nM
Compound: CC(=O)N[C@H]1Cc2ccc(cc2)OCc2cc3cc(c2)CSC[C@H](NC(=O)[C@H](CCC(=O)O)NC(=O)[C@H]([C@@H](C)O)NC1=O)C(=O)N[C@@H](Cc1c[nH]c2ccccc12)C(=O)N[C@@H](C(C)C)C(=O)N[C@@H](CC(=O)O)C(=O)NCC(=O)N[C@@H](Cc1c[nH]c2ccccc12)C(=O)N[C@@H](C(C)C)C(=O)N1CCC[C@H]1C(=O)N[C@H](C(N)=O)Cc1ccc(cc1)OC3 [I-109] (Ac-YTECWVDGWVPY-NH2; linker 1-4-12 via TBMB)
